Test system: FrsC
Details: 0.5 mM NADPH, pH 6, 30 °C, 1 μM FrsC, tag removed

Q: `O=C(O)C(=O)Cc1ccccc1` [phenylpyruvic acid] was tested. Which Km did it give?
A: 1370 ± 410 µM
